Experimental data published in ChEMBL document CHEMBL1144243, “Isolation, structure, and antibacterial activity of thiazomycin A, a potent thiazolyl peptide antibiotic from Amycolatopsis fastidiosa” (Bioorg Med Chem, 2008).
Converted amounts (≈) assume the structure as drawn. The source made the active and inactive calls. The rule behind the calls is not given here.

Columns and labels:
Streptococcus pneumoniae = assay: Antibacterial activity against penicillin-susceptible Streptococcus pneumoniae CL2883 after 18 to 20 hrs by serial dilution method; type: functional
Enterococcus faecalis = assay: Antibacterial activity against vancomycin-susceptible Enterococcus faecalis CL8516 after 18 to 20 hrs by serial dilution method; type: functional
Staphylococcus aureus [1] = assay: Antibacterial activity against methicillin-susceptible Staphylococcus aureus MB2865 after 18 to 20 hrs by serial dilution method; type: functional
Staphylococcus aureus [2] = assay: Antibacterial activity against methicillin-resistant Staphylococcus aureus MB5393 containing COL plasmid after 18 to 20 hrs by serial dilution method; type: functional
Staphylococcus aureus [3] = assay: Antibacterial activity against Staphylococcus aureus EP167 after 18 to 20 hrs by serial dilution method; type: functional
Haemophilus influenzae = assay: Antibacterial activity against Haemophilus influenzae MSD2261 after 18 to 20 hrs by serial dilution method; type: functional
Escherichia coli = assay: Antibacterial activity against Escherichia coli MB2884 after 18 to 20 hrs by serial dilution method; type: functional
Candida albicans = assay: Antimicrobial activity against Candida albicans MY1055 after 18 to 20 hrs by serial dilution method; type: functional
Staphylococcus aureus [4] = assay: Inhibition of protein synthesis in Staphylococcus aureus EP167 after 30 mins by scintillation counter; type: functional, organism-based; conditions: 0.5 h
Staphylococcus aureus [5] = assay: Inhibition of RNA synthesis in Staphylococcus aureus EP167 after 30 mins by scintillation counter; type: functional, organism-based
Staphylococcus aureus [6] = assay: Inhibition of DNA synthesis in Staphylococcus aureus EP167 after 30 mins by scintillation counter; type: functional, organism-based
Staphylococcus aureus [7] = assay: Inhibition of peptidoglycan synthesis in Staphylococcus aureus EP167 after 30 mins by scintillation counter; type: functional, organism-based
Staphylococcus aureus [8] = assay: Inhibition of phospholipid synthesis in Staphylococcus aureus EP167 after 30 mins by scintillation counter; type: functional, organism-based
[9] = Aqueous solubility of the compound; type: physicochemical; conditions: water

Row | Compound | MIC (Streptococcus pneumoniae) [µg/mL] | MIC (Enterococcus faecalis) [µg/mL] | MIC (Staphylococcus aureus [1]) [µg/mL] | MIC (Staphylococcus aureus [2]) [µg/mL] | MIC (Staphylococcus aureus [3]) [µg/mL] | MIC (Haemophilus influenzae) [µg/mL] | MIC (Escherichia coli) [µg/mL] | MIC (Candida albicans) [µg/mL] | IC50 (Staphylococcus aureus [4]) [µg/mL] | Activity (Staphylococcus aureus [5]) | Activity (Staphylococcus aureus [6]) | Activity (Staphylococcus aureus [7]) | Activity (Staphylococcus aureus [8]) | solubility [9] [µg/mL]
1 | C=C(NC(=O)c1csc(-c2nc3c(cc2O)-c2nc(cs2)C(=O)N[C@@H]([C@@H](C)O)C(=O)N/C(=C(\C)OC)c2nc(cs2)C(=O)N[C@@H]2c4nc(cs4)C(=O)N[C@@H](COC(=O)c4c5c6c(cccc6n4O)COC(=O)[C@@H](O[C@H]4C[C@]6(C)OC(C)N(C)[C@@H]6[C@H](C)O4)[C@H]2OC5)c2nc-3cs2)n1)C(N)=O (some centres undefined) [THIAZOMYCIN A] | 0.002 (≈ 0.00138 µM) | 0.25 (≈ 0.172 µM) | 0.06 (≈ 0.0414 µM) | 0.06 (≈ 0.0414 µM) | 0.004 (≈ 0.00276 µM) | > 32 | > 32 | > 32 | 0.7 (≈ 0.483 µM) | inactive | inactive | inactive | inactive | < 100
2 | CC(=O)NC[C@H]1CN(c2ccc(N3CCOCC3)c(F)c2)C(=O)O1 [LINEZOLID] | – | – | – | – | – | > 32 | > 32 | > 32 | – | – | – | – | – | –
3 | C=C(NC(=O)c1csc(-c2nc3c(cc2O)-c2nc(cs2)C(=O)N[C@@H]([C@@H](C)O)C(=O)N/C(=C(\C)OC)c2nc(cs2)C(=O)N[C@@H]2c4nc(cs4)C(=O)N[C@@H](COC(=O)c4c5c6c(cccc6n4O)COC(=O)[C@@H](O[C@H]4C[C@]6(C)OCN(C)[C@@H]6[C@H](C)O4)[C@H]2OC5)c2nc-3cs2)n1)C(N)=O [THIAZOMYCIN] | 0.004 (≈ 0.00279 µM) | 0.064 (≈ 0.0446 µM) | 0.016 (≈ 0.0111 µM) | 0.032 (≈ 0.0223 µM) | – | > 32 | > 32 | > 32 | – | – | – | – | – | –
